Toxic doses and inconclusive results are not listed. Residues, ends and D or L forms follow the SMILES beside them. *: point of attachment. For = O=C*
Tested on: BDF1 mice, P388 leukemia ip, median survival T/C
Experiment: NCI In Vivo Anticancer Drug Screen. Data for tumor model P388 Leukemia (intraperitoneal) in B6D2F1 (BDF1) mice
Details: endpoint: median survival time, higher = longer survival
Procedure, shortened: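 Each value expresses how treatment altered survival: treated-mouse outcome over vehicle-mouse outcome, both groups bearing the transplanted tumour.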

[1] = dose: 100.0 mg/kg/injection, schedule: Q01DX009 (ip), vehicle: saline with Tween-80
[2] = dose: 50.0 mg/kg/injection, schedule: Q04DX003 (ip), vehicle: Klucel (hydroxypropylcellulose) (HPC)
[3] = dose: 100.0 mg/kg/injection, schedule: Q04DX003 (ip), vehicle: Klucel (hydroxypropylcellulose) (HPC)
[4] = dose: 200.0 mg/kg/injection, schedule: Q04DX003 (ip), vehicle: Klucel (hydroxypropylcellulose) (HPC)
[5] = dose: 25.0 mg/kg/injection, schedule: Q01DX001 (ip), vehicle: saline sonified
[6] = dose: 50.0 mg/kg/injection, schedule: Q01DX001 (ip), vehicle: saline sonified
[7] = dose: 100.0 mg/kg/injection, schedule: Q01DX009 (ip), vehicle: saline
[8] = dose: 200.0 mg/kg/injection, schedule: Q01DX009 (ip), vehicle: saline
[9] = dose: 75.0 mg/kg/injection, schedule: Q04DX003 (ip), vehicle: saline
[10] = dose: 100.0 mg/kg/injection, schedule: Q04DX003 (ip), vehicle: saline with Tween-80
[11] = dose: 200.0 mg/kg/injection, schedule: Q04DX003 (ip), vehicle: saline with Tween-80
[12] = dose: 400.0 mg/kg/injection, schedule: Q04DX003 (ip), vehicle: saline with Tween-80
[13] = dose: 200.0 mg/kg/injection, schedule: Q01DX009 (ip), vehicle: saline with Tween-80
[14] = dose: 400.0 mg/kg/injection, schedule: Q01DX009 (ip), vehicle: saline with Tween-80

## Cc1nc(N)ncc1CCC1OCCO1
dose: 100.0 mg/kg/injection, schedule: Q01DX001 (ip), vehicle: saline
  T/C: 100 % of control
dose: 200.0 mg/kg/injection, schedule: Q01DX001 (ip), vehicle: saline
  T/C: 109 % of control
dose: 400.0 mg/kg/injection, schedule: Q01DX001 (ip), vehicle: saline
  T/C: 111 % of control

## OCCNCc1ccccc1
dose: 100.0 mg/kg/injection, schedule: Q04DX003 (ip), vehicle: water
  T/C: 100 % of control
dose: 400.0 mg/kg/injection, schedule: Q04DX003 (ip), vehicle: water
  T/C: 113 % of control

## COCC1OC(OC2OCC3OC4(OCC(O)(C(C)OC)C5OCOC54)OC3C2OC)C(OC)C(O)C1OC1OC(C)C(OC)C(OC2OC(C)C3OC4(CC(O)C(OC5CC(OC6CC(C)([N+](=O)[O-])C(OC)C(C)O6)C(OC(=O)c6c(C)c(Cl)c(O)c(Cl)c6OC)C(C)O5)C(C)O4)OC3(C)C2O)C1O (stereo not drawn)
dose: 12.5 mg/kg/injection, schedule: Q01DX009 (ip), vehicle: saline
  T/C: 115 % of control

## O=c1nc(Oc2ccccc2)nc2ccc(Cl)nn12
dose: 50.0 mg/kg/injection, schedule: Q01DX009 (ip), vehicle: saline with Tween-80
  T/C: 105 % of control
[1]
  T/C: 116 % of control

## Cc1cc(=O)[nH]c(N/N=C/C(C)C)n1
dose: 25.0 mg/kg/injection, schedule: Q01DX009 (ip), vehicle: Klucel (hydroxypropylcellulose) (HPC)
  T/C: 92 % of control
dose: 50.0 mg/kg/injection, schedule: Q01DX009 (ip), vehicle: Klucel (hydroxypropylcellulose) (HPC)
  T/C: 92 % of control
[2]
  T/C: 96 % of control
dose: 100.0 mg/kg/injection, schedule: Q01DX009 (ip), vehicle: Klucel (hydroxypropylcellulose) (HPC)
  T/C: 100 % of control
[3]
  T/C: 88 % of control
[4]
  T/C: 88 % of control

## CCCCCCCCCCCCCCCCSCCCCCCCCCCCSCCCCCCCCCCCCCCCC
[5]
  T/C: 90 % of control
[6]
  T/C: 90 % of control

## CC(=O)OCC(C)OC(C)=O (stereo not drawn)
[7]
  T/C: 91 % of control
dose: 100.0 mg/kg/injection, schedule: Q04DX003 (ip), vehicle: saline
  T/C: 100 % of control
[8]
  T/C: 112 % of control
dose: 200.0 mg/kg/injection, schedule: Q04DX003 (ip), vehicle: saline
  T/C: 100 % of control
dose: 400.0 mg/kg/injection, schedule: Q04DX003 (ip), vehicle: saline
  T/C: 96 % of control

## CC(=O)[O][Hg][c]1cc[c]([Hg][O]C(C)=O)s1
dose: 3.0 mg/kg/injection, schedule: Q01DX009 (ip), vehicle: Klucel (hydroxypropylcellulose) (HPC)
  T/C: 100 % of control
dose: 3.0 mg/kg/injection, schedule: Q04DX003 (ip), vehicle: Klucel (hydroxypropylcellulose) (HPC)
  T/C: 91 % of control
dose: 6.0 mg/kg/injection, schedule: Q01DX009 (ip), vehicle: Klucel (hydroxypropylcellulose) (HPC)
  T/C: 100 % of control
dose: 6.0 mg/kg/injection, schedule: Q04DX003 (ip), vehicle: Klucel (hydroxypropylcellulose) (HPC)
  T/C: 100 % of control
dose: 12.0 mg/kg/injection, schedule: Q01DX009 (ip), vehicle: Klucel (hydroxypropylcellulose) (HPC)
  T/C: 100 % of control
dose: 12.0 mg/kg/injection, schedule: Q04DX003 (ip), vehicle: Klucel (hydroxypropylcellulose) (HPC)
  T/C: 100 % of control

## CNC/C(C)=C/Br
dose: 12.5 mg/kg/injection, schedule: Q01DX009 (ip), vehicle: acetone
  T/C: 100 % of control
dose: 18.75 mg/kg/injection, schedule: Q04DX003 (ip), vehicle: saline
  T/C: 100 % of control
dose: 25.0 mg/kg/injection, schedule: Q01DX009 (ip), vehicle: acetone
  T/C: 104 % of control
dose: 37.5 mg/kg/injection, schedule: Q04DX003 (ip), vehicle: saline
  T/C: 104 % of control
dose: 50.0 mg/kg/injection, schedule: Q01DX009 (ip), vehicle: acetone
  T/C: 104 % of control
dose: 50.0 mg/kg/injection, schedule: Q01DX009 (ip), vehicle: saline
  T/C: 100 % of control
dose: 63.75 mg/kg/injection, schedule: Q01DX001 (ip), vehicle: saline
  T/C: 100 % of control
dose: 75.0 mg/kg/injection, schedule: Q01DX009 (ip), vehicle: saline
  T/C: 95 % of control
[9]
  T/C: 95 % of control
[7]
  T/C: 115 % of control
dose: 110.0 mg/kg/injection, schedule: Q04DX003 (ip), vehicle: saline
  T/C: 110 % of control
dose: 127.5 mg/kg/injection, schedule: Q01DX001 (ip), vehicle: saline
  T/C: 100 % of control
dose: 170.0 mg/kg/injection, schedule: Q04DX003 (ip), vehicle: saline
  T/C: 110 % of control
[8]
  T/C: 105 % of control
dose: 255.0 mg/kg/injection, schedule: Q04DX003 (ip), vehicle: saline
  T/C: 105 % of control

## CCN=NNc1ccc(C)cc1
dose: 8.25 mg/kg/injection, schedule: Q01DX009 (ip), vehicle: saline with Tween-80
  T/C: 90 % of control
dose: 16.5 mg/kg/injection, schedule: Q01DX009 (ip), vehicle: saline with Tween-80
  T/C: 100 % of control
dose: 66.0 mg/kg/injection, schedule: Q01DX009 (ip), vehicle: saline with Tween-80
  T/C: 100 % of control
[1]
  T/C: 108 % of control

## Cn1cnc(C(N)=S)c1N
[9]
  T/C: 112 % of control
dose: 100.0 mg/kg/injection, schedule: Q01DX001 (ip), vehicle: Klucel (hydroxypropylcellulose) (HPC)
  T/C: 100 % of control
dose: 150.0 mg/kg/injection, schedule: Q04DX003 (ip), vehicle: saline
  T/C: 100 % of control
dose: 200.0 mg/kg/injection, schedule: Q01DX001 (ip), vehicle: Klucel (hydroxypropylcellulose) (HPC)
  T/C: 95 % of control
dose: 300.0 mg/kg/injection, schedule: Q04DX003 (ip), vehicle: saline
  T/C: 112 % of control
dose: 400.0 mg/kg/injection, schedule: Q01DX001 (ip), vehicle: Klucel (hydroxypropylcellulose) (HPC)
  T/C: 100 % of control

## CCOC(=O)CCCc1ccccc1
[10]
  T/C: 113 % of control
[11]
  T/C: 100 % of control
[12]
  T/C: 100 % of control

## COC(=O)C(CC(C)C)NC(=O)C(Cc1ccc(O)cc1)NC=O (stereo not drawn) (For-Tyr-Leu-OMe; configuration not given here)
[1]
  T/C: 99 % of control
[10]
  T/C: 105 % of control
[13]
  T/C: 115 % of control
[11]
  T/C: 110 % of control
[14]
  T/C: 106 % of control
[12]
  T/C: 112 % of control

## O=[N+]([O-])c1ccc(/C=C/c2nccs2)o1
[3]
  T/C: 100 % of control
[4]
  T/C: 103 % of control

## Cc1ccc(S(=O)(=O)NN=C(c2ccccc2)c2ccccc2)cc1
dose: 12.5 mg/kg/injection, schedule: Q04DX003 (ip), vehicle: Klucel (hydroxypropylcellulose) (HPC)
  T/C: 98 % of control
dose: 25.0 mg/kg/injection, schedule: Q04DX003 (ip), vehicle: Klucel (hydroxypropylcellulose) (HPC)
  T/C: 103 % of control
[2]
  T/C: 103 % of control
[3]
  T/C: 97 % of control
[4]
  T/C: 97 % of control

## N#CC1(Nc2ccccc2)CCCCC1
dose: 25.0 mg/kg/injection, schedule: Q01DX009 (ip), vehicle: saline with Tween-80
  T/C: 115 % of control
dose: 50.0 mg/kg/injection, schedule: Q04DX003 (ip), vehicle: saline with Tween-80
  T/C: 109 % of control
[10]
  T/C: 109 % of control

## CC1(C)OB(C(B2OC(C)(C)C(C)(C)O2)=C(CCl)CCl)OC1(C)C
[5]
  T/C: 86 % of control
[6]
  T/C: 95 % of control
dose: 100.0 mg/kg/injection, schedule: Q01DX001 (ip), vehicle: saline sonified
  T/C: 95 % of control

## CCOC(N)=O
[7]
  T/C: 120 % of control
dose: 125.0 mg/kg/injection, schedule: Q01DX010 (ip), vehicle: saline
  T/C: 154 % of control
[8]
  T/C: 90 % of control
dose: 250.0 mg/kg/injection, schedule: Q01DX010 (ip), vehicle: saline
  T/C: 154 % of control
dose: 400.0 mg/kg/injection, schedule: Q01DX009 (ip), vehicle: saline
  T/C: 100 % of control
dose: 500.0 mg/kg/injection, schedule: Q01DX010 (ip), vehicle: saline
  T/C: 113 % of control

## CC[N+](CC)(CC)CCCNC1=CC(=O)C(NCCC[N+](CC)(CC)CC)=CC1=O
dose: 0.39 mg/kg/injection, schedule: Q04DX003 (ip), vehicle: saline
  T/C: 99 % of control
dose: 0.78 mg/kg/injection, schedule: Q04DX003 (ip), vehicle: saline
  T/C: 99 % of control

## CCO/C=C/C(=O)NC(=O)OCC
[1]
  T/C: 98 % of control
[10]
  T/C: 95 % of control
[13]
  T/C: 107 % of control
[11]
  T/C: 95 % of control
[14]
  T/C: 109 % of control
[12]
  T/C: 90 % of control

— PubChem BioAssay AID328 (DTP/NCI, 2004)
